System: RSV A2
Assay: RSV inhibition (cytopathic effect) in HEp-2 cells using Viral ToxGlo assay
Type: cell-based
Settings: human respiratory syncytial virus; RSV A2, HEp-2 cells, MOI 0.5, 72 h p.i.
Procedure: Protocol for Screening Antiviral Compounds for RSV Inhibition and Cytotoxicity Using Viral ToxGlo Assay
HEp-2 cells were maintained in Eagle's minimum essential medium (EMEM) with Earle's BSS adjusted to contain 2 mM L-glutamine, 10% fetal bovine serum, 100 U/ml penicillin and 100 μg/ml streptomycin. For the purposes of the screening assay they were grown to 90% confluency, trypsinized and recovered. The trypsin was neutralised with cell culture media and cells were centrifuged at 150×g for 5 minutes before discarding the supernatant and resuspending cell pellet in assay media (EMEM with Earle's BSS adjusted to contain 2 mM L-glutamine, 2% fetal bovine serum and 100 U/ml penicillin and 100 μg/ml streptomycin). The cells were seeded into white clear-bottomed cell culture plates at a density of 1.5×10^4 cells/well in 50 μl and 4×10^3 cells/well in 25 μl for 96 well plates and 384 well plates respectively. For the media/background control column assay media only was added. Cell plates were placed in a humid chamber and incubated overnight at 37° C./5% CO2. After overnight incubation cells were checked for confluency and healthy appearance.
Test articles were made up at 10× test concentration in a maximum DMSO concentration of 10% (final assay concentration maximal 1% DMSO) and added to the cell plates in volumes of 10 μl for 96 well plates and 5 μl for 384 well plates. For cell control and virus control wells the test article solvent only was added. Virus or assay media for cytotoxicity test wells and media/cell control wells was added immediately after test articles at an MOI of 0.5, 40 or 20 μl for 96 and 384 well plates respectively. Virus suspension was prepared by thawing RSV A2 frozen stocks and diluting to the required concentration of plaque forming units in assay media on ice.
Cell plates were further incubated inside a humid chamber for 72 h p.i at 37° C./5% CO2. After the incubation period cells were observed under the microscope to check for characteristic cytopathic effect in virus control wells and healthy cells in the cell control wells. After plates were adjusted to room temperature 20/40 μl Viral ToxGlo (Promega) was added to each well of the 384/96 well cell plates. Plates were incubated at room temperature, protected from light on a plate rocker for 20 minutes before measuring the luminescence on a spectrophotometer (Biotek Synergy HTX).

Row | SMILES | EC50
1 | CC1(NC(=O)c2cccc(Nc3ccc(C(=O)/N=C4\NCCC(=O)N4)cc3C3CC3)c2)CC1 [compound 121, 3-cyclopropyl-4-({3-[(1-methylcyclopropyl)carbamoyl]phenyl}amino)-N-[(2E)-4-oxo-1,3-diazinan-2-ylidene]benzamide] | 139 nM
2 | CC(C)C(=O)Nc1cccc(Nc2ccc(C(=O)/N=C3\NCCC(=O)N3)cc2C2CC2)c1C1CC1 [compound 122, 3-cyclopropyl-4-{[2-cyclopropyl-3-(2-methylpropanamido)phenyl]amino}-N-[(2E)-4-oxo-1,3-diazinan-2-ylidene]benzamide] | 141 nM
3 | CC(C)(C)NC(=O)c1cccc(Nc2ccc(C(=O)N=C3NCCCN3)cc2C2CC2)c1 [compound 123, 4-{[3-(tert-butylcarbamoyl)phenyl]amino}-3-cyclopropyl-N-(1,3-diazinan-2-ylidene)benzamide] | 147 nM
4 | O=C(N=C1NCCCN1)c1ccc(Nc2cccc(OCC(F)(F)F)c2)c(C2CC2)c1 [compound 124, 3-cyclopropyl-N-(1,3-diazinan-2-ylidene)-4-{[3-(2,2,2-trifluoroethoxy)phenyl]amino}benzamide] | 150 nM
5 | O=C(N=C1NCCCN1)c1ccc(Nc2cccc(OCC(F)F)c2)c(C2CC2)c1 [compound 125, 3-cyclopropyl-N-(1,3-diazinan-2-ylidene)-4-{[3-(2,2-difluoroethoxy)phenyl]amino}benzamide] | 151 nM
6 | O=C(N=C1NCCCN1)c1ccc(Nc2cccc(C(=O)NCCC3CCOCC3)c2)c(C2CC2)c1 [compound 126, 3-cyclopropyl-N-(1,3-diazinan-2-ylidene)-4-[(3-{[2-(oxan-4-yl)ethyl]carbamoyl}phenyl)amino]benzamide] | 165 nM
7 | O=C(N=C1NCCCN1)c1ccc(Nc2cccc(OCC3CCCCC3)c2)c(C2CC2)c1 [compound 127, 4-{[3-(cyclohexylmethoxy)phenyl]amino}-3-cyclopropyl-N-(1,3-diazinan-2-ylidene)benzamide] | 172 nM
8 | Cc1c(NC(=O)CCC(C)C)cccc1Nc1ccc(C(=O)N=C2NCCCN2)cc1C1CC1 [compound 128, 3-cyclopropyl-N-(1,3-diazinan-2-ylidene)-4-{[2-methyl-3-(4-methylpentanamido)phenyl]amino}benzamide] | 209 nM
9 | O=C(N=C1NCCCN1)c1ccc(Nc2cccc(OC3CCC3)c2)c(C2CC2)c1 [compound 129, 4-[(3-cyclobutoxyphenyl)amino]-3-cyclopropyl-N-(1,3-diazinan-2-ylidene)benzamide] | 223 nM
10 | O=C(N=C1NCCCN1)c1ccc(Nc2cccc(OCCC3CCCCC3)c2)c(C2CC2)c1 [compound 130, 4-{[3-(2-cyclohexylethoxy)phenyl]amino}-3-cyclopropyl-N-(1,3-diazinan-2-ylidene)benzamide] | 234 nM
11 | CC(C)CNC(=O)c1cccc(Nc2ccc(C(=O)N=C3NCCCN3)cc2C2CC2)c1 [compound 131, 3-cyclopropyl-N-(1,3-diazinan-2-ylidene)-4-({3-[(2-methylpropyl)carbamoyl]phenyl}amino)benzamide] | 246 nM
12 | CC(C)CCCOc1cccc(Nc2ccc(C(=O)N=C3NCCCN3)cc2C2CC2)c1 [compound 132, 3-cyclopropyl-N-(1,3-diazinan-2-ylidene)-4-({3-[(4-methylpentyl)oxy]phenyl}amino)benzamide] | 259 nM
13 | O=C(N=C1NCCCN1)c1ccc(Nc2cccc(C(=O)NCC(F)(F)F)c2)c(C2CC2)c1 [compound 133, 3-cyclopropyl-N-(1,3-diazinan-2-ylidene)-4-({3-[(2,2,2-trifluoroethyl)carbamoyl]phenyl}amino)benzamide] | 261 nM
14 | O=C1CCN/C(=N\C(=O)c2ccc(Nc3cccc(OCC4CCCOC4)c3)c(C3CC3)c2)N1 (stereo not shown) [compound 134, 3-cyclopropyl-4-({3-[(oxan-3-yl)methoxy]phenyl}amino)-N-[(2E)-4-oxo-1,3-diazinan-2-ylidene]benzamide] | 265 nM
15 | Cc1c(N)cccc1Nc1ccc(C(=O)N=C2NCCCN2)cc1C1CC1 [compound 135, 4-[(3-amino-2-methylphenyl)amino]-3-cyclopropyl-N-(1,3-diazinan-2-ylidene)benzamide] | 286 nM
16 | O=C(N=C1NCCCN1)c1ccc(Nc2cccc(C(=O)N3CC4CC4C3)c2)c(C2CC2)c1 (stereo not shown) [compound 136, 4-[(3-{3-azabicyclo[3.1.0]hexane-3-carbonyl}phenyl)amino]-3-cyclopropyl-N-(1,3-diazinan-2-ylidene)benzamide] | 298 nM

Row | SMILES | EC50
17 | O=C(N=C1NCCCN1)c1ccc(Nc2cccc(OC(F)(F)F)c2)c(C2CC2)c1 [compound 137, 3-cyclopropyl-N-(1,3-diazinan-2-ylidene)-4-{[3-(trifluoromethoxy)phenyl]amino}benzamide] | 304 nM
18 | O=C(N=C1NCCCN1)c1ccc(Nc2ccnc(C(=O)NCCC3CCCCC3)c2)c(C2CC2)c1 [compound 138, N-(2-cyclohexylethyl)-4-({2-cyclopropyl-4-[(1,3-diazinan-2-ylidene)carbamoyl]phenyl}amino)pyridine-2-carboxamide] | 310 nM
19 | CC(C)OCCOc1cccc(Nc2ccc(C(=O)N=C3NCCCN3)cc2C2CC2)c1 [compound 139, 3-cyclopropyl-N-(1,3-diazinan-2-ylidene)-4-({3-[2-(propan-2-yloxy)ethoxy]phenyl}amino)benzamide] | 340 nM
20 | O=C(N=C1NCCCN1)c1ccc(Nc2cccc(OCCCCC3CCCCC3)c2)c(C2CC2)c1 [compound 140, 4-{[3-(4-cyclohexylbutoxy)phenyl]amino}-3-cyclopropyl-N-(1,3-diazinan-2-ylidene)benzamide] | 368 nM
21 | Cc1c(Nc2ccc(C(=O)N=C3NCCCN3)cc2C2CC2)cccc1-c1ncc(Cl)[nH]1 [compound 141, 4-{[3-(5-chloro-1H-imidazol-2-yl)-2-methylphenyl]amino}-3-cyclopropyl-N-(1,3-diazinan-2-ylidene)benzamide] | 370 nM
22 | O=C(N=C1NCCCN1)c1ccc(Nc2cccc(S(=O)(=O)CCCC3CCCCC3)c2)c(C2CC2)c1 [compound 143, 4-{[3-(3-cyclohexylpropanesulfonyl)phenyl]amino}-3-cyclopropyl-N-(1,3-diazinan-2-ylidene)benzamide] | 398 nM
23 | O=C(N=C1NCCCN1)c1ccc(Nc2cccc(OC3COC3)c2)c(C2CC2)c1 [compound 144, 3-cyclopropyl-N-(1,3-diazinan-2-ylidene)-4-{[3-(oxetan-3-yloxy)phenyl]amino}benzamide] | 413 nM
24 | O=C1CCN/C(=N\C(=O)c2ccc(Nc3cccc(C(=O)NC4CC4)c3)c(C3CC3)c2)N1 [compound 145, 3-cyclopropyl-4-{[3-(cyclopropylcarbamoyl)phenyl]amino}-N-[(2E)-4-oxo-1,3-diazinan-2-ylidene]benzamide] | 421 nM
25 | O=C1CCN/C(=N\C(=O)c2ccc(Nc3cccc(OCC4CCOCC4)c3)c(C3CC3)c2)N1 [compound 146, 3-cyclopropyl-4-({3-[(oxan-4-yl)methoxy]phenyl}amino)-N-[(2E)-4-oxo-1,3-diazinan-2-ylidene]benzamide] | 439 nM
26 | CC(C)CCNC(=O)c1ccccc1Nc1ccc(C(=O)N=C2NCCCN2)cc1C1CC1 [compound 147, 3-cyclopropyl-N-(1,3-diazinan-2-ylidene)-4-({2-[(3-methylbutyl)carbamoyl]phenyl}amino)benzamide] | 460 nM
27 | O=C(CCC1CCCCC1)Nc1cc(Nc2ccc(C(=O)N=C3NCCCN3)cc2C(F)(F)F)ccc1F [compound 148, 4-{[3-(3-cyclohexylpropanamido)-4-fluorophenyl]amino}-N-(1,3-diazinan-2-ylidene)-3-(trifluoromethyl)benzamide] | 463 nM
28 | O=C(N=C1NCCCN1)c1ccc(Nc2cccc(-c3nnn(CCCC4CCCCC4)n3)c2)c(C2CC2)c1 [compound 149, 4-({3-[2-(3-cyclohexylpropyl)-2H-1,2,3,4-tetrazol-5-yl]phenyl}amino)-3-cyclopropyl-N-(1,3-diazinan-2-ylidene)benzamide] | 494 nM
29 | O=C1CCN/C(=N\C(=O)c2ccc(Nc3cccc(OCCC4COCCO4)c3)c(C3CC3)c2)N1 (stereo not shown) [compound 150, 3-cyclopropyl-4-({3-[2-(1,4-dioxan-2-yl)ethoxy]phenyl}amino)-N-[(2E)-4-oxo-1,3-diazinan-2-ylidene]benzamide] | 512 nM
30 | O=C1CCN/C(=N\C(=O)c2ccc(Nc3cccc(OCC4CCCCO4)c3)c(C3CC3)c2)N1 (stereo not shown) [compound 151, 3-cyclopropyl-4-({3-[(oxan-2-yl)methoxy]phenyl}amino)-N-[(2E)-4-oxo-1,3-diazinan-2-ylidene]benzamide] | 525 nM
31 | O=C(N=C1NCCCN1)c1ccc(Nc2cccc(C(=O)NC3CC(F)(F)C3)c2)c(C2CC2)c1 [compound 152, 3-cyclopropyl-N-(1,3-diazinan-2-ylidene)-4-({3-[(3,3-difluorocyclobutyl)carbamoyl]phenyl}amino)benzamide] | 593 nM
